Molecules are shown by their SMILES.

Data set [1] is described as follows: Nitrosamine content after frying cured bacon slices streaked with a soya oil solution of the aromatic secondary amine. Conditions: 100 ppm. As to the method: In the case of o-methoxy-N-dodecylaminobenzene samples were tested at 100, 200 and 300 ppm levels. The controls were streaked with oil alone.
For data set [2] the following is noted: in vivo; cited from earlier work.
The mark [3] stands for this setting: Table III, controls (ppb): Ex 30 76.0 and 60.0, 31 29.0, 32-33 42.5, 34 32.5, 35-39 28.2, 40 17.5, 41 20.0, 42 19.1, 43-44 34.0, 45 23.0, below about 3 ppb is below accurate detection level.

Turning to `CCOc1ccc(NC(C)(C)C)cc1` [Example 42, p-Ethoxy-N-t-butylaminobenzene], the “NITROSAMINES Test” value in data set [1] (setting [3]) is 2.2 ppb.
In the case of `O=NN1CCCC1` [N-nitrosopyrrolidine], in data set [2], the “carcinogenic in tests on experimental animals” value is recorded as “carcinogenic”.
On to `CCCCCCCCCCCCNc1ccc(OC)cc1OC` [Example 45, o,p-Dimethoxy-N-dodecylaminobenzene], for which the “NITROSAMINES Test” value in data set [1] (setting [3]) worked out at 2.5 ppb.
As for `CCCCCCCCCCCCNc1ccccc1` [Example 47, N-Dodecylaminobenzene], the “NITROSAMINES Test” value in data set [1] (Table IV, controls (ppb): Ex 46 34.0, 47 76.0, 48-49 41.0, 50-54 36.2) turned out to be 16.0 ppb.
Regarding `CN(C)N=O` [dimethylnitrosamine], the “carcinogenic in tests on experimental animals” value in data set [2] is “carcinogenic”.

(Values after US4076849A, “Control of nitrosamine formation in nitrite cured meat” (Canada Packers Limited, priority 1975, dated 1978).)
